Reference: US10039825B2, “Combination therapy with CD4 lymphocyte depletion and MTOR inhibitors” (Cedars-Sinai Medical Center, priority 2010, dated 2018)

How the values were obtained:
[1] = system: CD4+FoxP3+ lymphocytes; experiment: in vivo effect on CD4+FoxP3+ lymphocytes (flow cytometry); design: species or system B6 mice; conditions: treated daily for 24 days; FoxP3 staining gated on CD4; FIG. 1B
Method: Further, in vivo effect of temsirolimus on CD4+FoxP3+ lymphocytes was assessed. B6 mice (5 mice per group) were treated daily with temsirolimus for 24 days, 2 doses of vaccine (complex of hsp110 and gp100), or both. FoxP3 staining was quantified with flow cytometry while gating on CD4. […] Representative results are shown from at least 2 independent experiments.

[2] = system: C57 BL/6 or Pmel-1 mouse lymph node lymphocytes; experiment: [3H] thymidine incorporation assay of stimulated lymph node lymphocytes; assay type: cell-based; conditions: lymphocytes stimulated with anti-CD3 and anti-CD28 mAb or gp100 peptide, 72 hours; FIG. 1A
Method: As has been well established, mTOR inhibitors have immune suppressing activity. For the [3H] thymidine incorporation assay, lymph nodes were harvested from naïve C57 BL/6 or Pmel-1 mouse, 3×10^5 cells/well were cultured in 96-well plates and stimulated, with or without mTOR inhibitors, for 72 hours. C57 BL/6 lymphocytes were stimulated with anti-CD3 and anti-CD28 mAb, and Pmel-1 lymphocytes were stimulated with […]. DNA synthesis was determined by incubation for 16 h with 1 μCi [3H]thymidine (Amersham Biosciences, Piscataway, N.J., USA).

[3] = system: RENCA tumor cells; experiment: RENCA tumor re-challenge after treatment (antitumor immune memory); assay type: in vivo, Balb/c mice; conditions: re-challenged with 2×10^5 RENCA cells on day 47; tumor size 11 and 18 days after; FIG. 4
Method: Ten days after subcutaneous implantation of 2×10^5 tumor cells, Balb/c mice were treated with temsirolimus (30 ug/mouse daily on days 14 to 34, intraperitoneally) or temsirolimus plus CD4 depleting antibody (intraperitoneal injection of 200 μg of GK1.5 mAb, administered at day 6 and 10). Mice were re-challenged with 2×10^5 RENCA tumor cells on day 47. Naïve mouse group was also challenged with RENCA and served as a control. Tumor size was measured 11 and 18 days after the re-challenge. […] Since the mice were not being actively treated at the time of tumor re-challenge, direct antitumor effects of the therapy cannot account for the effects on tumor growth.

For CO[C@H]1C[C@@H]2CC[C@@H](C)[C@@](O)(O2)C(=O)C(=O)N2CCCC[C@H]2C(=O)O[C@H]([C@H](C)C[C@@H]2CC[C@@H](OC(=O)C(C)(CO)CO)[C@H](OC)C2)CC(=O)[C@H](C)/C=C(\C)[C@@H](O)[C@@H](OC)C(=O)[C@H](C)C[C@H](C)/C=C/C=C/C=C/1C [temsirolimus, Temsirolimus], the “Foxp3 positive lymphocytes (regulatory T cells)” value [1] was “increased”, the “immune suppressing activity, DNA synthesis by [3H]thymidine incorporation” value [2] was “nearly identical activities” and the “tumor growth after re-challenge” value [3] was “grew at the same rate”.
